ChEMBL document CHEMBL1212738, “Phenotypic and genotypic characterization of Enterobacteriaceae with decreased susceptibility to carbapenems: results from large hospital-based surveillance studies in China” (2010)
≈ marks a conversion by molar mass, not a printed value.

How the values were obtained:
[1] = system: Klebsiella pneumoniae; assay: Antimicrobial activity against Klebsiella pneumoniae ZJ68T expressing CTX-M-15 by CLSI method; assay type: functional
[2] = system: Klebsiella pneumoniae; assay: Antimicrobial activity against carbapenem-resistant Klebsiella pneumoniae PU104 deficient in TEM-1, SHV-11, CTX-M-15, qnrS1, ompK35/36 by CLSI method; assay type: functional
[3] = system: Klebsiella pneumoniae; assay: Antimicrobial activity against Klebsiella pneumoniae PU104T expressing TEM-1, CTX-M-15 by CLSI method; assay type: functional
[4] = system: Escherichia coli; assay: Antimicrobial activity against Escherichia coli PU60T expressing CMY-2 by CLSI method; assay type: functional
[5] = system: Escherichia coli; assay: Antimicrobial activity against Escherichia coli PU101T expressing CMY-2 by CLSI method; assay type: functional
[6] = system: Enterobacter cloacae; assay: Antimicrobial activity against carbapenem-resistant Enterobacter cloacae GX24 deficient in TEM-1, DHA-1, aac(6')-Ib, ompC by CLSI method; assay type: functional
[7] = system: Klebsiella aerogenes; assay: Antimicrobial activity against Enterobacter aerogenes PU41T expressing CTX-M-14, DHA-1, qnrS1 by CLSI method; assay type: functional
[8] = system: Enterobacter cloacae; assay: Antimicrobial activity against carbapenem-resistant Enterobacter cloacae GX56 deficient in ompC and expressing low levels of ompF DE by CLSI method; assay type: functional
[9] = system: Klebsiella aerogenes; assay: Antimicrobial activity against carbapenem-resistant Enterobacter aerogenes WH85 deficient in TEM-1, CTX-M-3, ompC/F by CLSI method; assay type: functional
[10] = system: Enterobacter cloacae; assay: Antimicrobial activity against carbapenem-resistant Enterobacter cloacae NJ88 deficient in CTX-M-14, ompC/F by CLSI method; assay type: functional
[11] = system: Enterobacter cloacae; assay: Antimicrobial activity against carbapenem-resistant Enterobacter cloacae NJ89 deficient in CTX-M-14, ompC/F by CLSI method; assay type: functional
[12] = system: Enterobacter cloacae; assay: Antimicrobial activity against carbapenem-resistant Enterobacter cloacae NJ91 deficient in CTX-M-14, ompC/F by CLSI method; assay type: functional
[13] = system: Klebsiella pneumoniae; assay: Antimicrobial activity against carbapenem-resistant Klebsiella pneumoniae GZ84 deficient in SHV-11, aac(6')-Ib-cr, ompK35 by CLSI method; assay type: functional
[14] = system: Enterobacter cloacae; assay: Antimicrobial activity against carbapenem-resistant Enterobacter cloacae SZ93 deficient in ompC by CLSI method; assay type: functional
[15] = system: Klebsiella pneumoniae; assay: Antimicrobial activity against Klebsiella pneumoniae ZJ71T expressing KPC-2 by CLSI method; assay type: functional
[16] = system: Escherichia coli; assay: Antimicrobial activity against Escherichia coli ZJ86T expressing KPC-2 by CLSI method; assay type: functional
[17] = system: Escherichia coli; assay: Antimicrobial activity against Escherichia coli ZJ87T expressing KPC-2 by CLSI method; assay type: functional
[18] = system: Klebsiella pneumoniae; assay: Antimicrobial activity against carbapenem-resistant Klebsiella pneumoniae FZ47 deficient in IMP-8, TEM-1, SHV-11, CTX-M-14, qnrB2, aac(6')-Ib, ompK35/36 by CLSI method; assay type: functional
[19] = system: Klebsiella pneumoniae; assay: Antimicrobial activity against Klebsiella pneumoniae GZ64 expressing IMP-4, ompK35/36 by CLSI method; assay type: functional
[20] = system: Klebsiella pneumoniae; assay: Antimicrobial activity against Klebsiella pneumoniae GZ64T expressing IMP-4 by CLSI method; assay type: functional
[21] = system: Klebsiella pneumoniae; assay: Antimicrobial activity against Klebsiella pneumoniae WH76 expressing IMP-4, TEM-1, SHV-14, CTX-M-3, qnrS1 by CLSI method; assay type: functional
[22] = system: Citrobacter freundii; assay: Antimicrobial activity against Citrobacter freundii SZ62 expressing IMP-4, TEM-1, CMY-2, qnrS1, aac(6')-Ib-cr by CLSI method; assay type: functional
[23] = system: Citrobacter freundii; assay: Antimicrobial activity against Citrobacter freundii SZ63 expressing IMP-4, qnrS1by CLSI method; assay type: functional
[24] = system: Klebsiella pneumoniae; assay: Antimicrobial activity against carbapenem-resistant Klebsiella pneumoniae CY1 deficient in SHV-11, DHA-1, ompK35/36 by CLSI method; assay type: functional
[25] = system: Klebsiella pneumoniae; assay: Antimicrobial activity against Klebsiella pneumoniae CY1T expressing SHV-11, DHA-1 by CLSI method; assay type: functional
[26] = system: Klebsiella pneumoniae; assay: Antimicrobial activity against carbapenem-resistant Klebsiella pneumoniae PU4 deficient in SHV-1, DHA-1, ompK35/36 by CLSI method; assay type: functional
[27] = system: Klebsiella pneumoniae; assay: Antimicrobial activity against carbapenem-resistant Klebsiella pneumoniae PU5 deficient in SHV-12, DHA-1, aac(6')-Ib-cr, ompK35/36 by CLSI method; assay type: functional
[28] = system: Klebsiella pneumoniae; assay: Antimicrobial activity against carbapenem-resistant Klebsiella pneumoniae PU8 deficient in SHV-11, DHA-1, aac(6')-Ib-cr, ompK35/36 by CLSI method; assay type: functional
[29] = system: Klebsiella pneumoniae; assay: Antimicrobial activity against carbapenem-resistant Klebsiella pneumoniae SX67 deficient in SHV-2, CTX-M-14, DHA-1, qnrB6/S1, aac(6')-Ib-cr, ompK35/36 by CLSI method; assay type: functional
[30] = system: Klebsiella pneumoniae; assay: Antimicrobial activity against carbapenem-resistant Klebsiella pneumoniae CY75 deficient in SHV-11, DHA-1, ompK35/36 by CLSI method; assay type: functional
[31] = system: Klebsiella pneumoniae; assay: Antimicrobial activity against carbapenem-resistant Klebsiella pneumoniae PU105 deficient TEM-1, SHV-12, CTX-M-14, DHA-1, qnrB10/B4-like, aac(6')-Ib-cr, ompK35/36 by CLSI method; assay type: functional
[32] = system: Klebsiella pneumoniae; assay: Antimicrobial activity against carbapenem-resistant Klebsiella pneumoniae ZJ68 deficient in CTX-M-15, ompK35/36 by CLSI method
[33] = system: Escherichia coli; assay: Antimicrobial activity against Escherichia coli C600 transconjugant WH76T expressing IMP-4, TEM-1, CTX-M-3, qnrS1 by CLSI method

SMILES	MIC [1] [µg/mL]	MIC [2] [µg/mL]	MIC [3] [µg/mL]	MIC [4] [µg/mL]	MIC [5] [µg/mL]	MIC [6] [µg/mL]	MIC [7] [µg/mL]	MIC [8] [µg/mL]	MIC [9] [µg/mL]	MIC [10] [µg/mL]	MIC [11] [µg/mL]	MIC [12] [µg/mL]	MIC [13] [µg/mL]	MIC [14] [µg/mL]	MIC [15] [µg/mL]	MIC [16] [µg/mL]	MIC [17] [µg/mL]	MIC [18] [µg/mL]	MIC [19] [µg/mL]	MIC [20] [µg/mL]	other results
CO/N=C(\C(=O)N[C@@H]1C(=O)N2C(C(=O)O)=C(COC(C)=O)CS[C@H]12)c1csc(N)n1 [CEFOTAXIME]	> 256	> 256	256 (≈ 562 µM)	16 (≈ 35.1 µM)	128 (≈ 281 µM)	256 (≈ 562 µM)	128 (≈ 281 µM)	> 256	> 256	> 256	> 256	> 256	256 (≈ 562 µM)	1 (≈ 2.2 µM)	16 (≈ 35.1 µM)	32 (≈ 70.3 µM)	32 (≈ 70.3 µM)	256 (≈ 562 µM)	256 (≈ 562 µM)	128 (≈ 281 µM)	MIC [21]: 128 µg/mL (≈ 281 µM); MIC [22]: 256 µg/mL (≈ 562 µM); MIC [23]: > 256 µg/mL; MIC [24]: 128 µg/mL (≈ 281 µM); MIC [25]: 4 µg/mL (≈ 8.78 µM); MIC [26]: 16 µg/mL (≈ 35.1 µM); MIC [27]: > 256 µg/mL; MIC [28]: 128 µg/mL (≈ 281 µM); MIC [29]: > 256 µg/mL; MIC [30]: > 256 µg/mL; MIC [31]: > 256 µg/mL; MIC [32]: > 256 µg/mL; MIC [33]: 256 µg/mL (≈ 562 µM)
CO[C@@]1(NC(=O)Cc2cccs2)C(=O)N2C(C(=O)O)=C(COC(N)=O)CS[C@@H]21 [CEFOXITIN]	16 (≈ 37.4 µM)	256 (≈ 599 µM)	256 (≈ 599 µM)	128 (≈ 299 µM)	> 256	> 256	256 (≈ 599 µM)	> 256	256 (≈ 599 µM)	> 256	> 256	> 256	> 256	> 256	32 (≈ 74.9 µM)	64 (≈ 150 µM)	64 (≈ 150 µM)	> 256	> 256	256 (≈ 599 µM)	MIC [21]: > 256 µg/mL; MIC [22]: > 256 µg/mL; MIC [23]: > 256 µg/mL; MIC [24]: > 256 µg/mL; MIC [25]: 64 µg/mL (≈ 150 µM); MIC [26]: > 256 µg/mL; MIC [27]: > 256 µg/mL; MIC [28]: > 256 µg/mL; MIC [29]: > 256 µg/mL; MIC [30]: > 256 µg/mL; MIC [31]: > 256 µg/mL; MIC [32]: 32 µg/mL (≈ 74.9 µM); MIC [33]: > 256 µg/mL
CC(C)(O/N=C(\C(=O)N[C@@H]1C(=O)N2C(C(=O)[O-])=C(C[n+]3ccccc3)CS[C@H]12)c1csc(N)n1)C(=O)O [CEFTAZIDIME]	256 (≈ 468 µM)	> 256	64 (≈ 117 µM)	64 (≈ 117 µM)	> 256	> 256	64 (≈ 117 µM)	256 (≈ 468 µM)	32 (≈ 58.5 µM)	> 256	> 256	> 256	256 (≈ 468 µM)	0.5 (≈ 0.915 µM)	32 (≈ 58.5 µM)	32 (≈ 58.5 µM)	32 (≈ 58.5 µM)	> 256	> 256	256 (≈ 468 µM)	MIC [21]: 256 µg/mL (≈ 468 µM); MIC [22]: > 256 µg/mL; MIC [23]: > 256 µg/mL; MIC [24]: 256 µg/mL (≈ 468 µM); MIC [25]: 64 µg/mL (≈ 117 µM); MIC [26]: 64 µg/mL (≈ 117 µM); MIC [27]: 256 µg/mL (≈ 468 µM); MIC [28]: 256 µg/mL (≈ 468 µM); MIC [29]: > 256 µg/mL; MIC [30]: 256 µg/mL (≈ 468 µM); MIC [31]: > 256 µg/mL; MIC [32]: 256 µg/mL (≈ 468 µM); MIC [33]: > 256 µg/mL
C[C@@H](O)[C@H]1C(=O)N2C(C(=O)O)=C(SCCNC=N)C[C@H]12 [IMIPENEM ANHYDROUS]	0.5 (≈ 1.67 µM)	2 (≈ 6.68 µM)	0.25 (≈ 0.835 µM)	0.5 (≈ 1.67 µM)	0.25 (≈ 0.835 µM)	4 (≈ 13.4 µM)	0.5 (≈ 1.67 µM)	4 (≈ 13.4 µM)	8 (≈ 26.7 µM)	16 (≈ 53.4 µM)	16 (≈ 53.4 µM)	16 (≈ 53.4 µM)	1 (≈ 3.34 µM)	4 (≈ 13.4 µM)	8 (≈ 26.7 µM)	8 (≈ 26.7 µM)	8 (≈ 26.7 µM)	8 (≈ 26.7 µM)	16 (≈ 53.4 µM)	2 (≈ 6.68 µM)	MIC [21]: 2 µg/mL (≈ 6.68 µM); MIC [22]: 4 µg/mL (≈ 13.4 µM); MIC [23]: 4 µg/mL (≈ 13.4 µM); MIC [24]: 32 µg/mL (≈ 107 µM); MIC [25]: 0.25 µg/mL (≈ 0.835 µM); MIC [26]: 16 µg/mL (≈ 53.4 µM); MIC [27]: 16 µg/mL (≈ 53.4 µM); MIC [28]: 16 µg/mL (≈ 53.4 µM); MIC [29]: 4 µg/mL (≈ 13.4 µM); MIC [30]: 32 µg/mL (≈ 107 µM); MIC [31]: 32 µg/mL (≈ 107 µM); MIC [32]: 4 µg/mL (≈ 13.4 µM); MIC [33]: 4 µg/mL (≈ 13.4 µM)
CN(C)c1cc(NC(=O)CNC(C)(C)C)c(O)c2c1C[C@H]1C[C@H]3[C@H](N(C)C)C(O)=C(C(N)=O)C(=O)[C@@]3(O)C(O)=C1C2=O [TIGECYCLINE]	0.064 (≈ 0.109 µM)	0.5 (≈ 0.854 µM)	0.25 (≈ 0.427 µM)	0.125 (≈ 0.213 µM)	0.25 (≈ 0.427 µM)	1 (≈ 1.71 µM)	0.064 (≈ 0.109 µM)	4 (≈ 6.83 µM)	0.064 (≈ 0.109 µM)	0.5 (≈ 0.854 µM)	0.5 (≈ 0.854 µM)	0.5 (≈ 0.854 µM)	0.5 (≈ 0.854 µM)	1 (≈ 1.71 µM)	0.13 (≈ 0.222 µM)	0.25 (≈ 0.427 µM)	0.25 (≈ 0.427 µM)	1 (≈ 1.71 µM)	0.5 (≈ 0.854 µM)	0.06 (≈ 0.102 µM)	MIC [21]: 0.5 µg/mL (≈ 0.854 µM); MIC [22]: 1 µg/mL (≈ 1.71 µM); MIC [23]: 1 µg/mL (≈ 1.71 µM); MIC [24]: 16 µg/mL (≈ 27.3 µM); MIC [25]: 1 µg/mL (≈ 1.71 µM); MIC [26]: 4 µg/mL (≈ 6.83 µM); MIC [27]: 0.5 µg/mL (≈ 0.854 µM); MIC [28]: 1 µg/mL (≈ 1.71 µM); MIC [29]: 0.5 µg/mL (≈ 0.854 µM); MIC [30]: 1 µg/mL (≈ 1.71 µM); MIC [31]: 2 µg/mL (≈ 3.41 µM); MIC [32]: 0.125 µg/mL (≈ 0.213 µM); MIC [33]: 0.06 µg/mL (≈ 0.102 µM)
